Source: ChEMBL document CHEMBL1759977, “Investigation of the mode of binding of a novel series of N-benzyl-4-heteroaryl-1-(phenylsulfonyl)piperazine-2-carboxamides to the hepatitis C virus polymerase” (Bioorg Med Chem Lett, 2011)
Activity calls are given as the source filed them. No cut-off for these calls is given here.

Assays:
[1] = test system: Hepatitis C virus; test: Antiviral activity against Hepatitis C virus subtype 1a by replication assay; type: functional, organism-based, Hepacivirus hominis
[2] = test system: Hepatitis C virus; test: Antiviral activity against Hepatitis C virus subtype 1b by replication assay; type: functional, organism-based, Hepacivirus hominis; settings: genotype 1b
[3] = test system: Hepatitis C virus; test: Binding affinity to HCV 1b NS5B polymerase; settings: Hepatitis C virus subtype 1b
[4] = test system: Hepatitis C virus subtype 1a; test: Binding affinity to HCV 1a wild type NS5B polymerase

| Compound | EC50 [1] | EC50 [2] | Activity [3] | Activity [4] |
| --- | --- | --- | --- | --- |
| CC[C@H](C)NC(=O)c1ccc(N2CCN(S(=O)(=O)c3ccc(OC(F)(F)F)cc3)[C@@H](C(=O)NCc3ccc(OC(F)(F)F)cc3)C2)nn1 | 87 nM | 7 nM | – | – |
| O=C(NC1CC1)c1ccc(N2CCN(S(=O)(=O)c3ccc(OC(F)(F)F)cc3)[C@@H](C(=O)NCc3ccc(OC(F)(F)F)cc3)C2)nn1 | 169 nM | 9 nM | Active | Active |
| COc1ccc(CNC(=O)C2CN(c3cc(OC)nc(OC)n3)CCN2S(=O)(=O)c2ccc(OC(F)(F)F)cc2)cc1 (racemic) | 8100 nM | 700 nM | Active | – |
| CCc1ccc(S(=O)(=O)N2CCN(c3cc(OC)nc(OC)n3)CC2C(=O)NCc2ccc(OC)cc2)cc1 (racemic) | 25000 nM | 2000 nM | – | – |
| COc1ccc(CNC(=O)C2CN(c3ccc(Cl)nn3)CCN2S(=O)(=O)c2ccc(OC(F)(F)F)cc2)cc1 (racemic) | 2200 nM | 700 nM | Active | – |
